Data published in patent publication US20100184703A1, “USE OF PEPTIDE DERIVATIVES FOR TREATING PATHOLOGIES RESULTING FROM ISCHEMIA” (CHIESI FARMACEUTICI S.p.A., priority 2007, published 2010).
“Also recorded” adds a separate entry of the source. Peptide text beside a SMILES is read from it. * marks the point of attachment. X1 = COC(=O)CC(N*)C(=O)COc1c(F)cccc1F; Quinaldoyl = O=C(c1ccc2ccccc2n1)*

Experiments:
caspase-2 [1] = target: T1, caspase-2 (Rattus norvegicus, UniProt P55215); assay: Dosage of caspase-2 activity in myocardial tissue, chronic ischemia (PMI) model; type: in vivo; settings: PMI 72 h; for caspase-2 activity: pre-treated rats, left ventricle (VG) and septum, 1 mg/kg
T1 construct: Each fragment of tissue was rapidly frozen in liquid nitrogen and kept at −80° C; from tissue; host or cells: rat myocardium (left ventricle, right ventricle, septum, apex) extracts
T1 sequence (P55215 170-325 limits assumed): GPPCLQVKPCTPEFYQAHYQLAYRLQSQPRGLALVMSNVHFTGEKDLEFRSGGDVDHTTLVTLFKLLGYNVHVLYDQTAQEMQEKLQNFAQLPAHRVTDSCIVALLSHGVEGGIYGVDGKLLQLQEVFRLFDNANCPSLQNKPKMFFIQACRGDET
T1 sequence (P55215 348-452 limits assumed): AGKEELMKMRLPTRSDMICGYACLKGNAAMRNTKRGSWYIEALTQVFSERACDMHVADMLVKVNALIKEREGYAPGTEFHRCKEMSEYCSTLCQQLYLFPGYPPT

[2] = system: rats with permanent ligature of the left coronary artery (PMI); assay: Survival of animals after chronic ischemia (PMI); type: in vivo, rat; settings: intraperitoneal injection 5-15 min before occlusion
Protocol: The analyses were performed on 2 myocardial ischemia models: a chronic ischemia model and an acute ischemia model, followed by myocardial reperfusion after 30 min of occlusion.
Said models were realized with Wistar male rats (180-220 g). The coronary artery was ligatured according to Pfeffer et al protocol.
Briefly, the rats were anaesthetized by intraperitoneal administration of a mixture of Ketamine (150 mg/kg) and Xylazine (15 mg/kg), then intubated and mechanically ventilated. The animals were submitted to a left and median thoracotomy. An occlusion of the coronary artery was done with a silk wire (size: 7.0) at the more proximal point and below the auricle.
In the case of chronic ischemia, the ligature was maintained and the rib cage of the animal reclosed (PMI model for post myocardial infarction).
The effect of the blocking of the caspase activity by Q-VD-OPH or by D1 on animals survival […] after infarction are given on FIG. 3. (A) over a period of 140 days; (B) the injection of the inhibitors or vehicle (DMSO) was carried out by intraperitoneal route 5-15 min before the occlusion of the coronary artery.
The animals having undergone a permanent ligature of the left coronary artery (PMI) were maintained alive during 4-5 months before performing the in vivo and ex vivo functional exploration. The death of the animals during this period was followed up.

TNFα, IL1β, IL10 = assay: Multiplex assay (Luminex) of circulating cytokines after ischemia-reperfusion; type: in vivo, rat; settings: IR model; for circulating level of TNFα: injected 15 min prior to the reperfusion, compared to sham-operated; for IL-1β elevation / IL-10 elevation: within the first 24 hours of reperfusion
Protocol: Another series of experiments was conducted in the rat model of ischemia-reperfusion. Ischemia and reperfusion is well known to trigger an acute inflammatory process in animal model as well as in human. In our rat model, at the euthanasia, blood sample were collected in order to measure the inflammatory response on sera. This was performed by multiplex assay (Luminex technology). Three parameters were simultaneously measured at various time after myocardial reperfusion the pro inflammatory cytokines TNFα and IL1β as well as the anti-inflammatory cytokine IL10. […] B-C. […] In summary, caspase 2 inhibition prevents the acute inflammatory response occurring during the first 24 hours after myocardial reperfusion. *p<0.05 compared to sham-operated animals, n≧5 animals.

[3] = system: ventricular cardiomyocytes; assay: Patch-clamp electrophysiological recordings on ventricular cardiomyocytes of PMI rats; type: in vivo, rat; settings: for density of transitory current coming out (Ito): cardiomyocytes of the sub-epicardic layer; for membrane capacity (cellular size; hypertrophy induced by myocardial ischemia): cardiomyocytes after 4-5 months
Protocol: The isolated ventricular cardiomyocytes were obtained by enzymatic dissociation with collagenase by Langendorf reversed perfusion (Fauconnier, 2005). The rats were heparinized (0.2 ml, GIBCO® 1000 Ul/ml) and anaesthetized by intraperitoneal injection of pentobarbital ([…], Sanofi Santé, France). The heart was rapidly excised and a retrograde perfusion through the aorta, was performed for 5 min with a calcium-free washing solution (in mM: NaCl 117, KCl 5.7, NaHCO3 4.4, KH2PO4 1.5, MgCl2 1.7, HEPES 21, glucose 11, taurine 20, pH 7.2 (adjusted with NaOH) and O2-bubbled) at 37° C. The solution was then replaced by a similar medium containing 1.3 mg·ml^−1 of collagenase of type IV (Worthington, Freehold, N.J., USA) and perfused during 20-30 min. The heart was then perfused with the initial solution containing 2,3-butanedione monoxime as inhibitor of the muscular contraction (15 mM BDM). The ventricles were then delicately separated and, by mechanic stirring, the cardiomyocytes were liberated in the medium. The dissociated cells were washed in the same solution wherein increased concentrations of CaCl2 were added (0.3, 1, 1.8 mM). The cells of the sub-epicardial layer (EPI) were separated from the sub-endocardial layer (ENDO) by simple manual dissection.
The potentials of action (PA) and ionic currents were measured by the patch-clamp technique in whole cell configuration using an amplifier RK 400 (Biologic, Claix France) interfaced by a analogical/numerical converter DIGIDATA 1200 (Axon Instrument, Sunnyvale, Calif., USA) controlled by a PC. The acquisition and analysis of the data were realized with pCLAMP program (Axon Instrument, Sunnyvale, Calif., USA). The sampling frequency was of 10 KHz and the signals filtrated at 3 KHz. Pipettes comprised between 1 and 1.5 MΩ were used to ensure a good quality of voltage. For the measure of the potentials of action, the pipettes were filled with an internal solution (in mM: 130 KCl, 25 HEPES, 3 MgATP, 0.4 NaGTP, and 0.5 EGTA; the pH was adjusted at 7.2 with KOH). The external medium was composed of (in mM): 135 NaCl, 1 MgCl2, 4 KCl, 11 glucose, 2 HEPES, and 1.8 CaCl2; the pH was adjusted to 7.2. with NaOH.
The PA were started by injections of current of 0.2 ms at an intensity slightly higher than the supraliminal intensity threshold. The transitory potassium current coming out (Ito) was measured with the same internal and external solution (10 μM of tetrodotoxine (TTX) and 2 mM of cobalt chloride were added to the external medium to become independent from the […] and calcic currents, respectively. Ito was measured from depolarizing pulses.
The patch-clamp electrophysiological technique enables the membrane capacity (which reflects the cellular size) to be measured (this capacity reflects the cellular size). The results obtained with the above animals groups confirm the hypertrophy induced by the myocardial ischemia.

caspase-2 [4] = target: T1, caspase-2; assay: Dosage of caspase-2 activity in myocardial tissue, reperfusion ischemia (IR) model; type: in vivo; settings: administered 15 min before the reperfusion, VGZI and septum

What does the source list for `CC(C)[C@H](NC(=O)c1ccc2ccccc2n1)C(=O)N[C@@H](CC(=O)O)C(=O)COc1c(F)cccc1F` [Q-VD-OPH]?
caspase-2 activity (caspase-2 [1]): inhibited; animal survival over about 140 days post-infarctus [2]: survival curve superimposes on the one of the PMI group; circulating level of TNFα (TNFα, IL1β, IL10): not significantly different; IL-1β elevation (TNFα, IL1β, IL10): prevented; IL-10 elevation (TNFα, IL1β, IL10): prevented; density of transitory current coming out (Ito) [3]: do not present any improvement; also recorded: no effect; membrane capacity (cellular size; hypertrophy induced by myocardial ischemia) ([3]; pre-treatment): has not effect; caspase-2 activity (caspase-2 [4]): inhibits the activity of both caspases; caspase-2 activity (caspase-2 [4]; listed as QVDOPH): normalization of the activity

How did the caspase-2 activity (caspase-2 [1]) turn out when `COC(=O)CC(NC(=O)[C@H](C)NC(=O)[C@@H](NC(=O)[C@H](CC(=O)OC)NC(=O)[C@@H](NC(=O)c1ccc2ccccc2n1)C(C)C)C(C)C)C(=O)COc1c(F)cccc1F` (stereo partly drawn) [D1, (3S,6S,9S,12S)-methyl 15-(2-(2,6-difluorophenoxy)acetyl)-3,9-diisopropyl-6-(2-methoxy-2-oxoethyl)-12-methyl-1,4,7,10,13-pentaoxo-1-(quinolin-2-yl)-2,5,8,11,14-pentaazaheptadecan-17-oate] (Quinaldoyl-VD(OMe)VA-X1) was run?
The caspase-2 activity was “inhibited”.

What about the caspase-2 basal activity (caspase-2 [1]; right ventricular (RV)) of the same compound?
Its caspase-2 basal activity is “weak inhibition”.

What about the “circulating level of TNFα” value (TNFα, IL1β, IL10) of the same compound?
The value was “not significantly different”.

And the IL-1β elevation (TNFα, IL1β, IL10)?
The IL-1β elevation was “prevented”.

What about the IL-10 elevation (TNFα, IL1β, IL10) of the same compound?
Its IL-10 elevation is “prevented”.

And the “density of transitory current coming out (Ito)” value [3]?
The value was “very preserved; also recorded: significantly restored”.

And the “membrane capacity (cellular size; hypertrophy induced by myocardial ischemia)” value ([3]; pre-treatment)?
The value was “highly prevented”.

What about the “potential of action (PA) duration remodeling, transmural EPI/ENDO gradient” value ([3]; pre-treatment, sub-epicardial and sub-endocardial cardiomyocytes) of the same compound?
Its value is “total absence of PA remodeling”.

What about the caspase-2 activity (caspase-2 [4]) of the same compound?
Its caspase-2 activity is “normalization of the activity; also recorded: specifically inhibits”.
